According to PubChem BioAssay (NCI):
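Growth conditions: 96-well plates. Treatment: test compound, 48 hours, 5 concentrations. Analysis: linear interpolation between bracketing concentrations; unreached endpoints set to highest concentration. Definition used: TGI = concentration required for complete inhibition of growth.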

Legend:
Experiment in all cases: growth of human tumour cells (NCI), 48 h
786-0 renal = system: 786-0 renal
HOP-62 NSCLC = system: HOP-62 NSCLC
NCI-H23 lung = system: NCI-H23 lung
NCI-H522 lung = system: NCI-H522 lung
OVCAR-4 ovarian = system: OVCAR-4 ovarian
OVCAR-8 ovarian = system: OVCAR-8 ovarian
PC-3 prostate = system: PC-3 prostate
SF-295 CNS = system: SF-295 CNS
TK-10 renal = system: TK-10 renal
U251 CNS = system: U251 CNS

Structure (SMILES)	TGI (786-0 renal) [µM]	TGI (HOP-62 NSCLC) [µM]	TGI (NCI-H23 lung) [µM]	TGI (NCI-H522 lung) [µM]	TGI (OVCAR-4 ovarian) [µM]	TGI (OVCAR-8 ovarian) [µM]	TGI (PC-3 prostate) [µM]	TGI (SF-295 CNS) [µM]	TGI (TK-10 renal) [µM]	TGI (U251 CNS) [µM]
Cc1ccc(OCC2OC(n3cnc4c(Cl)nc(N)nc43)CC2Oc2ccc(C)cc2)cc1 (stereo not given)	> 100	> 52.5	49.7	12.1	61.3	> 100	> 58.5	> 100	> 100	> 100
OCC(O)C(O)C(O)C(O)c1nc2ccc(Cl)cc2[nH]1 (stereo not given)	> 100	> 100	> 100	> 100	> 100	> 100	> 100	> 100	> 100	> 100
O=C1NC(=O)C(C(CC(=O)c2ccc([N+](=O)[O-])cc2)c2ccccc2)C(=O)N1 (stereo not given)	> 100	> 100	95.1	> 100	> 100	> 100	> 100	54.9	7.73	> 100
CCCCOC(=O)C(NC(C(=O)OCCCC)c1cc(C(C)(C)C)c(O)c(C(C)(C)C)c1)c1cc(C(C)(C)C)c(O)c(C(C)(C)C)c1 (stereo not given)	> 100	> 100	> 100	> 100	> 100	> 100	> 100	> 100	> 100	> 100
C[N+](C)(C)c1ccc(C(N)C(=O)O)cc1 (stereo not given)	> 100	> 100	> 100	> 100	> 100	> 100	> 100	> 100	> 100	> 100
COc1ccc2c3c1OC1C(=O)C=CC4(CC2)N(C)CCC314 (stereo not given)	63.7	> 100	> 100	33	> 100	> 100	> 100	> 100	> 100	53
CC(C)CNc1nc2ncnc(N)c2[nH]1	> 100	> 100	> 100	> 100	> 100	> 100	> 100	> 100	> 100	> 100
ClCCCc1ccccc1C1=NCCc2ccccc21	> 100	> 100	> 100	> 100	> 100	> 100	> 100	> 100	> 100	> 100
C[C@H](NC(=O)C(Cc1ccccc1)(Cc1ccc(O)cn1)NC(=O)c1ccccc1)c1ccccc1 (stereo not given in full)	31.3	33.8	50.5	35.4	50.4	42.1	28.7	29	94.8	28.6
Cc1ccc(S(=O)(=O)n2c3ccc(Br)cc3c3nc4ccccc4nc32)cc1	> 100	> 100	> 100	> 100	> 100	> 100	> 100	> 100	> 100	> 100
CC(C)=NN/C(=N\S(=O)(=O)c1ccc(Oc2cccc(Cl)c2C#N)cc1)Nc1ccc(Cl)cc1	> 100	> 100	> 100	> 100	> 100	> 100	> 100	> 100	> 100	> 100
Cc1ccc([S@](=O)c2occc2C=O)cc1	11.3	35.2	30.4	31.6	> 53.2	25.4	10.4	32.4	18.6	27.4
O=C(NCCCCCCCCCCCCNC(=O)Nc1cccc2ccccc12)Nc1cccc2ccccc12	32.2	20.1	31.5	28.9	24.1	53.6	29.7	27.7	31.5	31.8
CCOP(=O)(/C=C\n1cc(C)c(=O)[nH]c1=O)OCC	> 100	> 100	> 100	> 100	> 100	> 100	> 100	> 100	> 100	> 100
CCCCCCCC/C=C\CCCCCCC/C=C1\C[C@](/C=C/C(=O)OC)(CO)OC1=O	3.61	9.18	16.1	8.61	10.9	8.5	6.96	14.1	8	5.92
N#CC1(C#N)NC(c2cccs2)C(C#N)(C#N)NC1c1cccs1 (stereo not given)	> 100	> 100	> 100	88.4	> 100	> 100	> 100	> 100	> 100	64.5
O=S(=O)(c1ccc(NC2=NC(c3ccc(O)cc3)(c3ccccc3O)c3ccccc32)cc1)c1ccc(NC2=NC(c3ccc(O)cc3)(c3ccccc3O)c3ccccc32)cc1 (stereo not given)	> 28.8	> 100	8.01	4.76	13.7	> 40.7	> 58.7	> 53.2	> 100	> 100
CCCC(=O)NC(Nc1ccc(S(=O)(=O)Nc2cc(C)on2)cc1)(C(=O)OCC)C(F)(F)F (stereo not given)	> 100	> 100	> 100	> 100	> 100	> 100	> 100	> 100	> 100	> 100
CC(=O)OCC1OC(SC2=N/C(=C\c3ccc(Br)s3)C(=O)N2CN2CCOCC2)C(OC(C)=O)C(OC(C)=O)C1OC(C)=O (stereo not given)	36.5	56.6	27.2	23.6	> 100	37	54.5	52	34.8	32.2
O=c1cc(N2CCCC2)[nH]c(=O)n1Cc1ccccc1	> 100	> 100	> 100	> 100	> 100	> 100	> 100	> 100	> 100	> 100
